Reference: PubChem BioAssay AID328 (DTP/NCI, 2004)
Values joined by “and” are separate entries in the source; they are usually repeats but may differ in a detail not shown here. Equal entries are not always repeated. Toxic doses and inconclusive results are not listed. Rule for the calls: active = survival T/C of 150% or more; inactive = T/C below 125% in these data.

Tested on: BDF1 mice, P388 leukemia ip, median survival T/C
Test: NCI In Vivo Anticancer Drug Screen. Data for tumor model P388 Leukemia (intraperitoneal) in B6D2F1 (BDF1) mice
Settings: endpoint: median survival time, higher = longer survival
Description: The antitumor activity of compounds was measured in mice bearing transplantable tumors. Survival or tumor size were measured and the results are expressed as the measurement made in the treated group (T) divided by the measurement made in the vehicle treated control group (C). The tumor model used in this assay is P388 Leukemia (intraperitoneal) in B6D2F1 (BDF1) mice

[1] = dose: 200.0 mg/kg/injection, schedule: Q01DX009 (ip), vehicle: saline with Tween-80
[2] = dose: 100.0 mg/kg/injection, schedule: Q04DX003 (ip), vehicle: saline with Tween-80
[3] = dose: 200.0 mg/kg/injection, schedule: Q04DX003 (ip), vehicle: saline with Tween-80
[4] = dose: 400.0 mg/kg/injection, schedule: Q04DX003 (ip), vehicle: saline with Tween-80
[5] = dose: 6.25 mg/kg/injection, schedule: Q01DX009 (ip), vehicle: saline with Tween-80
[6] = dose: 100.0 mg/kg/injection, schedule: Q04DX003 (ip), vehicle: Klucel (hydroxypropylcellulose) (HPC)
[7] = dose: 200.0 mg/kg/injection, schedule: Q04DX003 (ip), vehicle: Klucel (hydroxypropylcellulose) (HPC)
[8] = dose: 400.0 mg/kg/injection, schedule: Q04DX003 (ip), vehicle: Klucel (hydroxypropylcellulose) (HPC)
[9] = dose: 100.0 mg/kg/injection, schedule: Q01DX009 (ip), vehicle: saline
[10] = dose: 200.0 mg/kg/injection, schedule: Q01DX009 (ip), vehicle: saline
[11] = dose: 100.0 mg/kg/injection, schedule: Q01DX009 (ip), vehicle: saline with Tween-80
[12] = dose: 400.0 mg/kg/injection, schedule: Q01DX009 (ip), vehicle: saline with Tween-80

Measured: T/C

Nc1nc(=S)c2ncn(C3OC(COC(=O)c4ccc(Cl)cc4)C(OC(=O)c4ccc(Cl)cc4)C3OC(=O)c3ccc(Cl)cc3)c2[nH]1 (stereo not drawn)
inactive: dose: 132.0 mg/kg/injection, schedule: Q04DX003 (ip), vehicle: saline with Tween-80 118 % of control | [1] 100 % of control | dose: 300.0 mg/kg/injection, schedule: Q04DX003 (ip), vehicle: saline with Tween-80 122 % of control

Nc1cc2c3ccccc3ncc2c2ccccc12
inactive: [2] 100 % of control | [3] 100 % of control | [4] 100 % of control

CC(C)(C)NC(=S)N/N=C/c1cc(Cl)cc(Cl)c1O
inactive: dose: 1.56 mg/kg/injection, schedule: Q01DX009 (ip), vehicle: saline with Tween-80 94 % of control | dose: 3.12 mg/kg/injection, schedule: Q01DX009 (ip), vehicle: saline with Tween-80 100 % of control | [5] 99 % of control

CN=C(N)Nc1ccc(C(=O)O)cc1
inactive: dose: 50.0 mg/kg/injection, schedule: Q01DX009 (ip), vehicle: water 93 % of control | dose: 100.0 mg/kg/injection, schedule: Q01DX009 (ip), vehicle: water 99 % of control | dose: 100.0 mg/kg/injection, schedule: Q04DX003 (ip), vehicle: water 100 % of control | dose: 200.0 mg/kg/injection, schedule: Q01DX009 (ip), vehicle: water 90 % of control | dose: 200.0 mg/kg/injection, schedule: Q04DX003 (ip), vehicle: water 94 % of control | dose: 400.0 mg/kg/injection, schedule: Q01DX009 (ip), vehicle: water 92 % of control | dose: 400.0 mg/kg/injection, schedule: Q04DX003 (ip), vehicle: water 88 % of control

CN(C)c1ccc(/C=C/c2nc3ccccc3o2)cc1
inactive: [6] 90 % of control | [7] 90 % of control | [8] 100 % of control

CN(C)NCCC#N
inactive: dose: 50.0 mg/kg/injection, schedule: Q01DX009 (ip), vehicle: saline 100 % of control | dose: 66.0 mg/kg/injection, schedule: Q01DX009 (ip), vehicle: saline 111 % of control | dose: 75.0 mg/kg/injection, schedule: Q01DX009 (ip), vehicle: saline 117 % of control | [9] 100 % of control and 111 % of control | dose: 150.0 mg/kg/injection, schedule: Q01DX009 (ip), vehicle: saline 118 % of control | [10] 86 % of control

CCCCCCC(=O)/C=C/c1ccc(Cl)cc1
inactive: [11] 90 % of control | [1] 91 % of control | [12] 100 % of control

Ic1ncnc2nc[nH]c12
inactive: dose: 75.0 mg/kg/injection, schedule: Q01DX009 (ip), vehicle: Klucel (hydroxypropylcellulose) (HPC) 113 % of control | [9] 104 % of control | [2] 95 % of control | dose: 150.0 mg/kg/injection, schedule: Q01DX009 (ip), vehicle: Klucel (hydroxypropylcellulose) (HPC) 113 % of control | [10] 108 % of control | [3] 104 % of control | dose: 300.0 mg/kg/injection, schedule: Q01DX009 (ip), vehicle: Klucel (hydroxypropylcellulose) (HPC) 109 % of control | dose: 400.0 mg/kg/injection, schedule: Q01DX009 (ip), vehicle: saline 100 % of control | [4] 95 % of control

COCC(O)Cn1ccnc1[N+](=O)[O-] (stereo not drawn)
inactive: dose: 540.0 mg/kg/injection, schedule: Q01DX001 (ip), vehicle: saline 104 % of control | dose: 600.0 mg/kg/injection, schedule: Q01DX001 (ip), vehicle: saline 92 % of control and 101 % of control | dose: 900.0 mg/kg/injection, schedule: Q01DX001 (ip), vehicle: saline 107 % of control | dose: 1000.0 mg/kg/injection, schedule: Q01DX001 (ip), vehicle: saline 99 % of control | dose: 1500.0 mg/kg/injection, schedule: Q01DX001 (ip), vehicle: saline 104 % of control

COc1ccc(-c2cc(=O)c3c(O)c(OC)c(O)cc3o2)cc1
inactive: dose: 10.0 mg/kg/injection, schedule: Q01DX010 (ip), vehicle: carboxymethylcellulose (CMC) 95 % of control | dose: 20.0 mg/kg/injection, schedule: Q01DX010 (ip), vehicle: carboxymethylcellulose (CMC) 90 % of control | dose: 80.0 mg/kg/injection, schedule: Q01DX010 (ip), vehicle: carboxymethylcellulose (CMC) 95 % of control

c1ccc(-c2oc3cc4c(cc3c2-c2ccc(OCCN3CCCC3)cc2)CCC4)cc1
inactive: [2] 95 % of control

CCOC(=O)C1=C(O)c2c(sc(C)c2-c2ccccc2)N(S(=O)(=O)c2ccc(C)cc2)CC1
inactive: [11] 100 % of control | [1] 109 % of control | [12] 95 % of control

CCOCCOCCOc1nc(F)c(Cl)cc1Cl
inactive: [2] 100 % of control | [3] 118 % of control

C[C@]12C=CC(=O)C=C1CC[C@@H]1[C@@H]2[C@@H](O)C[C@@]2(C)[C@H]1CC[C@]2(O)C(=O)CO
inactive: dose: 12.5 mg/kg/injection, schedule: Q01DX010 (sc), vehicle: steriod suspending solution 109 % of control and 120 % of control | dose: 25.0 mg/kg/injection, schedule: Q01DX010 (sc), vehicle: steriod suspending solution 109 % of control and 110 % of control | dose: 50.0 mg/kg/injection, schedule: Q01DX010 (sc), vehicle: steriod suspending solution 113 % of control and 120 % of control | dose: 100.0 mg/kg/injection, schedule: Q01DX010 (sc), vehicle: steriod suspending solution 118 % of control and 120 % of control

Cc1ccc2c(c1)CN(Cc1ccccc1)CO2
inactive: [6] 104 % of control | [7] 100 % of control | [8] 100 % of control

O=C1N=C2C=CC=CN2CC1O (stereo not drawn)
inactive: [2] 104 % of control | [3] 112 % of control | [4] 100 % of control

CCCCc1cc(O)c2c(c1O)C(=O)c1ccccc1C2=O
inactive: dose: 100.0 mg/kg/injection, schedule: Q01DX001 (ip), vehicle: saline with Tween-80 104 % of control | dose: 200.0 mg/kg/injection, schedule: Q01DX001 (ip), vehicle: saline with Tween-80 104 % of control | dose: 400.0 mg/kg/injection, schedule: Q01DX001 (ip), vehicle: saline with Tween-80 90 % of control

COB1OB(OC)OB(OC)O1
inactive: [11] 104 % of control | [2] 100 % of control | [1] 100 % of control | [3] 100 % of control | [12] 109 % of control | [4] 100 % of control

CCN1CCCC(Nc2nc(Nc3cc(Cl)cc(Cl)c3)nc3ccc(Cl)cc23)C1 (stereo not drawn)
inactive: [5] 122 % of control | dose: 12.5 mg/kg/injection, schedule: Q01DX009 (ip), vehicle: saline with Tween-80 109 % of control | dose: 25.0 mg/kg/injection, schedule: Q01DX009 (ip), vehicle: saline with Tween-80 109 % of control
